This experiment has as its system L1210 leukemia ip in BDF1 mice, survival T/C. Briefly: NCI In Vivo Anticancer Drug Screen. Data for tumor model L1210 Leukemia (intraperitoneal) in B6D2F1 (BDF1) mice. The conditions noted are these: higher = longer survival. The procedure, abridged:
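Survival endpoint. Drug-treated group vs vehicle group, expressed as T divided by C. Tumor passaged by transplantation.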

The mark [1] stands for this setting: endpoint: mean survival time, dose: 200.0 mg/kg/injection, schedule: Q04DX002 (ip), vehicle: Klucel (hydroxypropylcellulose) (HPC).
Where [2] appears, read: endpoint: mean survival time, dose: 400.0 mg/kg/injection, schedule: Q04DX002 (ip), vehicle: Klucel (hydroxypropylcellulose) (HPC).
[3] abbreviates: endpoint: mean survival time, dose: 100.0 mg/kg/injection, schedule: Q04DX002 (ip), vehicle: Klucel (hydroxypropylcellulose) (HPC).
[4] abbreviates: endpoint: mean survival time, dose: 100.0 mg/kg/injection, schedule: Q01DX001 (ip), vehicle: saline.
[5] abbreviates: endpoint: mean survival time, dose: 200.0 mg/kg/injection, schedule: Q01DX001 (ip), vehicle: saline.
Where [6] appears, read: endpoint: mean survival time, dose: 400.0 mg/kg/injection, schedule: Q01DX001 (ip), vehicle: saline.
Where [7] appears, read: endpoint: mean survival time, dose: 100.0 mg/kg/injection, schedule: Q01DX009 (ip), vehicle: saline.
Where [8] appears, read: endpoint: mean survival time, dose: 200.0 mg/kg/injection, schedule: Q01DX009 (ip), vehicle: saline.
Where [9] appears, read: endpoint: mean survival time, dose: 100.0 mg/kg/injection, schedule: Q01DX001 (ip), vehicle: carboxymethylcellulose (CMC).
The mark [10] stands for this setting: endpoint: mean survival time, dose: 200.0 mg/kg/injection, schedule: Q01DX001 (ip), vehicle: carboxymethylcellulose (CMC).
The mark [11] stands for this setting: endpoint: mean survival time, dose: 400.0 mg/kg/injection, schedule: Q01DX001 (ip), vehicle: carboxymethylcellulose (CMC).

Values joined by “and” are separate entries in the source; they are usually repeats but may differ in a detail not shown here. Equal entries are not always repeated. Inconclusive results and toxic doses are left out.

Regarding `O=[N+]([O-])c1ccc(/C=N/c2oc(-c3ccc([N+](=O)[O-])cc3)nc2Sc2ccccc2)cc1`, the T/C runs as follows: (endpoint: mean survival time, dose: 25.0 mg/kg/injection, schedule: Q04DX002 (ip), vehicle: Klucel (hydroxypropylcellulose) (HPC)) 106 % of control; under setting [1], 96 % of control and 97 % of control and 92 % of control; under setting [2], 96 % of control.

With `CCOc1cccc2c(=O)c(C(=O)O)cn(CC)c12`, the T/C is 93 % of control under setting [3], 107 % of control under setting [1] and 104 % of control under setting [2].

Regarding `CCN1C(=O)c2ccccc2C1=O`, the T/C is 107 % of control (endpoint: mean survival time, dose: 50.0 mg/kg/injection, schedule: Q01DX009 (ip), vehicle: Klucel (hydroxypropylcellulose) (HPC)); 96 % of control under setting [4]; 94 % of control (endpoint: mean survival time, dose: 100.0 mg/kg/injection, schedule: Q01DX009 (ip), vehicle: Klucel (hydroxypropylcellulose) (HPC)); 98 % of control under setting [5]; 89 % of control (endpoint: mean survival time, dose: 200.0 mg/kg/injection, schedule: Q01DX009 (ip), vehicle: Klucel (hydroxypropylcellulose) (HPC)); 88 % of control under setting [6].

As to `Cc1cccc(NC#N)n1`, the T/C reads like this: (endpoint: mean survival time, dose: 25.0 mg/kg/injection, schedule: Q01DX001 (ip), vehicle: Klucel (hydroxypropylcellulose) (HPC)) 100 % of control; (endpoint: mean survival time, dose: 50.0 mg/kg/injection, schedule: Q01DX001 (ip), vehicle: Klucel (hydroxypropylcellulose) (HPC)) 98 % of control; (endpoint: mean survival time, dose: 100.0 mg/kg/injection, schedule: Q01DX001 (ip), vehicle: Klucel (hydroxypropylcellulose) (HPC)) 98 % of control and 101 % of control.

As to `CNC(C)(C)CO`, the T/C (endpoint: mean survival time, dose: 100.0 mg/kg/injection, schedule: Q04DX003 (ip), vehicle: saline) is 100 % of control; the T/C (endpoint: mean survival time, dose: 200.0 mg/kg/injection, schedule: Q04DX003 (ip), vehicle: saline) was 107 % of control; the T/C (endpoint: mean survival time, dose: 400.0 mg/kg/injection, schedule: Q04DX003 (ip), vehicle: saline) was 104 % of control.

For `CCCOc1ccc(/C=N\N=C\c2ccc(OCCC)cc2)cc1`, the T/C was 94 % of control (endpoint: mean survival time, dose: 100.0 mg/kg/injection, schedule: Q01DX009 (ip), vehicle: saline with Tween-80); 94 % of control (endpoint: mean survival time, dose: 200.0 mg/kg/injection, schedule: Q01DX009 (ip), vehicle: saline with Tween-80); 91 % of control (endpoint: mean survival time, dose: 400.0 mg/kg/injection, schedule: Q01DX009 (ip), vehicle: saline with Tween-80).

As to `O=P1(NCCCl)OCCCN1CCCl` (stereo not given), the T/C (endpoint: mean survival time, dose: 12.5 mg/kg/injection, schedule: Q01DX001 (ip), vehicle: saline) is 101 % of control; the T/C (endpoint: mean survival time, dose: 25.0 mg/kg/injection, schedule: Q01DX001 (ip), vehicle: saline) was 116 % of control and 117 % of control; the T/C (endpoint: mean survival time, dose: 25.0 mg/kg/injection, schedule: Q01DX009 (ip), vehicle: saline) was 155 % of control; the T/C (endpoint: mean survival time, dose: 25.0 mg/kg/injection, schedule: Q07DX003 (ip), vehicle: saline) is 110 % of control; the T/C (endpoint: mean survival time, dose: 50.0 mg/kg/injection, schedule: Q01DX001 (ip), vehicle: saline) was 124 % of control; the T/C (endpoint: mean survival time, dose: 50.0 mg/kg/injection, schedule: Q01DX009 (ip), vehicle: saline) is 160 % of control. Moreover, the T/C (endpoint: mean survival time, dose: 50.0 mg/kg/injection, schedule: Q01DX009 (ip), vehicle: water) is 173 % of control; the T/C (endpoint: mean survival time, dose: 75.0 mg/kg/injection, schedule: Q07DX003 (ip), vehicle: saline) was 166 % of control; the T/C under setting [7] was 260 % of control; the T/C (endpoint: mean survival time, dose: 100.0 mg/kg/injection, schedule: Q01DX009 (ip), vehicle: water) was 185 % of control; the T/C (endpoint: mean survival time, dose: 100.0 mg/kg/injection, schedule: Q07DX003 (ip), vehicle: saline) is 216 % of control; the T/C (endpoint: mean survival time, dose: 125.0 mg/kg/injection, schedule: Q07DX003 (ip), vehicle: saline) was 206 % of control. For the same compound, the T/C runs as follows: (endpoint: mean survival time, dose: 150.0 mg/kg/injection, schedule: Q01DX001 (ip), vehicle: saline) 249 % of control; under setting [5], 191 % of control and 221 % of control and 298 % of control; under setting [8], 167 % of control; under setting [6], 198 % of control; (endpoint: mean survival time, dose: 800.0 mg/kg/injection, schedule: Q01DX001 (ip), vehicle: saline) 206 % of control; (endpoint: median survival time, dose: 65.0 mg/kg/injection, schedule: Q01DX014 (ip), vehicle: water) 215 % of control and 216 % of control. Further, the T/C by setting is: (endpoint: median survival time, dose: 108.0 mg/kg/injection, schedule: Q01DX001 (ip), vehicle: water) 118 % of control and 121 % of control; (endpoint: median survival time, dose: 180.0 mg/kg/injection, schedule: Q01DX001 (ip), vehicle: saline) 172 % of control and 175 % of control; (endpoint: median survival time, dose: 180.0 mg/kg/injection, schedule: Q01DX009 (ip), vehicle: water) 291 % of control; (endpoint: median survival time, dose: 180.0 mg/kg/injection, schedule: Q01DX014 (ip), vehicle: water) 105 % of control; (endpoint: median survival time, dose: 180.0 mg/kg/injection, schedule: Q07DX003 (ip), vehicle: water) 289 % of control; (endpoint: median survival time, dose: 300.0 mg/kg/injection, schedule: Q01DX001 (ip), vehicle: saline) 261 % of control and 266 % of control. Besides, the T/C was 187 % of control (endpoint: median survival time, dose: 300.0 mg/kg/injection, schedule: Q01DX009 (ip), vehicle: water); 76 % of control (endpoint: median survival time, dose: 300.0 mg/kg/injection, schedule: Q01DX014 (ip), vehicle: water); 168 % of control (endpoint: median survival time, dose: 300.0 mg/kg/injection, schedule: Q07DX003 (ip), vehicle: water); 272 % of control and 297 % of control (endpoint: median survival time, dose: 400.0 mg/kg/injection, schedule: Q01DX001 (ip), vehicle: water); 44 % of control (endpoint: median survival time, dose: 500.0 mg/kg/injection, schedule: Q01DX001 (ip), vehicle: saline); 81 % of control (endpoint: median survival time, dose: 500.0 mg/kg/injection, schedule: Q01DX009 (ip), vehicle: water). The T/C by setting is: (endpoint: median survival time, dose: 600.0 mg/kg/injection, schedule: Q01DX001 (ip), vehicle: water) 227 % of control and 255 % of control; (endpoint: median survival time, dose: 700.0 mg/kg/injection, schedule: Q01DX001 (ip), vehicle: water) 46 % of control; (endpoint: median survival time, dose: 800.0 mg/kg/injection, schedule: Q01DX001 (ip), vehicle: water) 39 % of control; (endpoint: median survival time, dose: 833.0 mg/kg/injection, schedule: Q01DX001 (ip), vehicle: saline) 23 % of control; (endpoint: median survival time, dose: 833.0 mg/kg/injection, schedule: Q01DX009 (ip), vehicle: water) 24 % of control; (endpoint: median survival time, dose: 900.0 mg/kg/injection, schedule: Q01DX001 (ip), vehicle: water) 25 % of control.

Regarding `CN(C)S(=O)(=O)c1ccc(CC(O)(c2ccccc2)c2ccccc2)cc1`, the T/C is 105 % of control and 91 % of control (endpoint: mean survival time, dose: 88.8 mg/kg/injection, schedule: Q01DX001 (ip), vehicle: carboxymethylcellulose (CMC)); 98 % of control under setting [9]; 120 % of control and 91 % of control (endpoint: mean survival time, dose: 133.0 mg/kg/injection, schedule: Q01DX001 (ip), vehicle: carboxymethylcellulose (CMC)); 96 % of control and 109 % of control under setting [10]; 93 % of control and 97 % of control (endpoint: mean survival time, dose: 300.0 mg/kg/injection, schedule: Q01DX001 (ip), vehicle: carboxymethylcellulose (CMC)); 104 % of control under setting [11].

For `Nc1cn(C2OC(CO)C(O)C2O)c(=O)[nH]c1=O` (stereo not given), the T/C runs as follows: under setting [4], 97 % of control; under setting [5], 124 % of control; under setting [6], 100 % of control.

Consider `COc1ccc(NCC(O)CN2CCCCC2)cc1` (stereo not given), for which the T/C under setting [4] is 94 % of control.

With `Cc1ccc(S(=O)(=O)NC(CCl)=NCc2ccccc2)cc1`, the T/C is, setting by setting: under setting [3], 96 % of control; under setting [1], 100 % of control; under setting [2], 114 % of control.

With `CC(CCc1ccccc1)C12CCC(CC1O)C2` (stereo not given), the T/C was 96 % of control under setting [3], 110 % of control under setting [1] and 96 % of control under setting [2].

`COC(=O)C(=Cc1ccccc1)C(=O)OC`: the T/C is, setting by setting: under setting [3], 95 % of control; under setting [1], 95 % of control; under setting [2], 92 % of control.

Regarding `O=c1c2ncn(C3OC(CO)C(O)C3O)c2nc2nc[nH]n12` (stereo not given), the T/C is, setting by setting: (endpoint: mean survival time, dose: 100.0 mg/kg/injection, schedule: Q01DX005 (ip), vehicle: saline) 93 % of control; (endpoint: mean survival time, dose: 200.0 mg/kg/injection, schedule: Q01DX005 (ip), vehicle: saline) 98 % of control.

For the compound `COc1ccc(C2(O)C3CCC(C3)C2(C)C)cc1` (stereo not given), the T/C reads like this: (endpoint: mean survival time, dose: 50.0 mg/kg/injection, schedule: Q01DX001 (ip), vehicle: carboxymethylcellulose (CMC)) 89 % of control; under setting [9], 89 % of control; under setting [10], 89 % of control; under setting [11], 95 % of control.

Take `O=S(=O)(O)c1cccc(S(=O)(=O)O)c1`: the T/C reads like this: under setting [7], 105 % of control; under setting [8], 103 % of control; (endpoint: mean survival time, dose: 400.0 mg/kg/injection, schedule: Q01DX009 (ip), vehicle: saline) 97 % of control.

The record behind these values is PubChem BioAssay AID248 (DTP/NCI, 2004).
